Tests used:
velvetleaf = test: Test A preemergence; type: in vivo, Abutilon theophrasti; settings: Abutilon theophrasti, pre-emergence, 240 h, 0 to 100 scale (0 no effect, 100 complete control), read-out: Plant response rating, Velvetleaf
Outline: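 Test chemicals, formulated in a surfactant-containing non-phytotoxic solvent mixture, are applied either as a directed soil spray to newly planted seeds or as a postemergence application to plants at the one- to two-leaf stage (2–10 cm). All plants grow in a loam soil and sand blend.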

galium [1] = test: Test C preemergence; type: in vivo, Galium aparine; settings: for Plant response rating (scale of 0 to 100 where 0 is no effect and 100 is complete control): Galium, preemergence; for Galium plant response rating (0 to 100): Preemergence, visual rating after 13 to 15 d
Outline: (§1)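 Test chemicals in a non-phytotoxic solvent mixture with surfactant were applied to pots of plants at 2 to 18 cm (1- to 4-leaf stage) for postemergence treatment, grown in a peat-based medium with vermiculite, starter nutrients and dolomitic limestone. Preemergence treatment was to seeds freshly planted in loam soil mixed with sand.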

morningglory = test: Test C preemergence; type: in vivo, Ipomoea coccinea; settings: for Plant response rating (scale of 0 to 100 where 0 is no effect and 100 is complete control): Morningglory, preemergence; for Morningglory plant response rating (0 to 100): Preemergence, visual rating after 13 to 15 d
Outline: as §1

pigweed = test: Test C preemergence; type: in vivo, Amaranthus retroflexus; settings: for Plant response rating (scale of 0 to 100 where 0 is no effect and 100 is complete control): Pigweed, preemergence; for Pigweed plant response rating (0 to 100): Preemergence, visual rating after 13 to 15 d
Outline: as §1

galium [2] = test: Test D preemergence; type: in vivo, Galium aparine; settings: scale 0 to 100
Outline: (§2)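 Visual injury ratings compared with untreated controls, taken 14 to 21 d after treatment in a controlled growth environment. Test chemicals were formulated in a surfactant-containing non-phytotoxic solvent and applied either preemergence to seeds in silt loam soil or postemergence to plants at the 1- to 4-leaf stage.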

chamomile = test: Test D preemergence; type: in vivo, Matricaria inodora; settings: scale 0 to 100
Outline: as §2

speedwell = test: Test D preemergence; type: in vivo, Veronica persica; settings: scale 0 to 100
Outline: as §2

bluegrass = test: Test D postemergence; type: in vivo, Poa annua; settings: scale 0 to 100
Outline: as §2

chickweed = test: Test D postemergence; type: in vivo, Stellaria media; settings: scale 0 to 100
Outline: as §2

bromegrass, down = test: Test D postemergence; type: in vivo, Bromus tectorum; settings: scale 0 to 100
Outline: as §2

foxtail, green = test: Test D postemergence; type: in vivo, Setaria viridis; settings: scale 0 to 100
Outline: as §2

barley, spring = test: Test D postemergence; type: in vivo, Hordeum vulgare; settings: scale 0 to 100
Outline: as §2

barley, winter = test: Test D postemergence; type: in vivo, Hordeum vulgare; settings: scale 0 to 100
Outline: as §2

CCc1nc(-c2ccc(C(F)(F)F)cc2)nn1Cc1ccnc(C(F)(F)F)c1 [Compound 1, 4-[[5-ethyl-3-[4-(trifluoromethyl)phenyl]-1H-1,2,4-triazol-1-yl]methyl]-2-(trifluoromethyl)pyridine]
pest or weed control at 125 g/ha (velvetleaf; 125 g ai/ha): 30%
pest or weed control at 500 g/ha (velvetleaf; 500 g ai/ha, approx. 10 d): 100%
Plant response rating (scale of 0 to 100 where 0 is no effect and 100 is complete control) (galium [1]; 125 g ai/ha): 100
Plant response rating (scale of 0 to 100 where 0 is no effect and 100 is complete control) (galium [1]; 250 g ai/ha): 100
Galium plant response rating (0 to 100) (galium [1]; 31 g ai/ha): 70
Galium plant response rating (0 to 100) (galium [1]; 62 g ai/ha): 98
Plant response rating (scale of 0 to 100 where 0 is no effect and 100 is complete control) (morningglory; 125 g ai/ha): 55
Plant response rating (scale of 0 to 100 where 0 is no effect and 100 is complete control) (morningglory; 250 g ai/ha): 90
Morningglory plant response rating (0 to 100) (morningglory; 31 g ai/ha): 20
Morningglory plant response rating (0 to 100) (morningglory; 62 g ai/ha): 55
Plant response rating (scale of 0 to 100 where 0 is no effect and 100 is complete control) (pigweed; 125 g ai/ha): 100
Plant response rating (scale of 0 to 100 where 0 is no effect and 100 is complete control) (pigweed; 250 g ai/ha): 100
Pigweed plant response rating (0 to 100) (pigweed; 31 g ai/ha): 100
Pigweed plant response rating (0 to 100) (pigweed; 62 g ai/ha): 100
Plant response rating: Galium (galium [2]; 125 g ai/ha): 60
Plant response rating: Galium (galium [2]; 250 g ai/ha): 100
Plant response rating: Chamomile (chamomile; 31 g ai/ha): 0
Plant response rating: Chamomile (chamomile; 62 g ai/ha): 20
Plant response rating: Chamomile (chamomile; 125 g ai/ha): 80
Plant response rating: Chamomile (chamomile; 250 g ai/ha): 100
Plant response rating: Speedwell (speedwell; 62 g ai/ha): 100
Plant response rating: Speedwell (speedwell; 125 g ai/ha): 100
Plant response rating: Speedwell (speedwell; 250 g ai/ha): 100
Plant response rating: Bluegrass (bluegrass; 31 g ai/ha): 10
Plant response rating: Bluegrass (bluegrass; 62 g ai/ha): 20
Plant response rating: Bluegrass (bluegrass; 125 g ai/ha): 35
Plant response rating: Bluegrass (bluegrass; 250 g ai/ha): 55
Plant response rating: Chickweed (chickweed; 31 g ai/ha): 75
Plant response rating: Chickweed (chickweed; 62 g ai/ha): 80
Plant response rating: Chickweed (chickweed; 125 g ai/ha): 85
Plant response rating: Chickweed (chickweed; 250 g ai/ha): 90
Plant response rating: Bromegrass, Down (bromegrass, down; 31 g ai/ha): 15
Plant response rating: Bromegrass, Down (bromegrass, down; 62 g ai/ha): 20
Plant response rating: Bromegrass, Down (bromegrass, down; 125 g ai/ha): 25
Plant response rating: Bromegrass, Down (bromegrass, down; 250 g ai/ha): 35
Plant response rating: Foxtail, Green (foxtail, green; 31 g ai/ha): 25
Plant response rating: Foxtail, Green (foxtail, green; 62 g ai/ha): 45
Plant response rating: Foxtail, Green (foxtail, green; 125 g ai/ha): 65
Plant response rating: Foxtail, Green (foxtail, green; 250 g ai/ha): 75
Plant response rating: Barley, Spring (barley, spring; 31 g ai/ha): 20
Plant response rating: Barley, Spring (barley, spring; 62 g ai/ha): 35
Plant response rating: Barley, Spring (barley, spring; 125 g ai/ha): 35
Plant response rating: Barley, Spring (barley, spring; 250 g ai/ha): 40
Plant response rating: Barley, Winter (barley, winter; 31 g ai/ha): 20
Plant response rating: Barley, Winter (barley, winter; 62 g ai/ha): 25
Plant response rating: Barley, Winter (barley, winter; 125 g ai/ha): 35
Plant response rating: Barley, Winter (barley, winter; 250 g ai/ha): 40

Source: patent publication US10681909B2, “Herbicidal triazoles” (FMC Corporation, priority 2014, dated 2020)
